One block for each compound: values may come before it. Where a SMILES comes first, the peptide text is derived from it. Where no end group is shown, it is not given here. [ ]: non-standard residue; d: D form. Cit = NC(=O)NCCC[C@H](N)C(=O)O
How the values were obtained:
HLA-DR4 (DRB1*04:01) = target: T1, HLA-DR4 (DRB1*04:01) (Homo sapiens, UniProt P01903+P01911, A100K/A169T/F76Y/I96L/K127E/L162R/M171V/N62H/P40V/Q125Y/R42H/S133A/S149N/S66Y/V115G/V209L/W38E); assay: Competitive peptide binding assay to soluble HLA-DR4; settings: for IC50: competition with 0.5 nM biotinylated CII(257–274), 10 nM soluble DR4, 18 h at 37° C
T1 construct: a new stop codon was inserted immediately prior to the transmembrane domain; made in house; host or cells: Drosophila S2 cells, vector pRmHA-3, secreted, purified on an L227 antibody column
Source text: (§1) Soluble DR1 and DR4 were purified from culture supernatants of S2 drosophila cells transfected with DRB1*0101 or DRB1*0401 and DRA1*0101 as described previously. The cytoplasmic and transmembrane portions of these molecules were deleted from the cDNA using PCR, a new stop codon was inserted immediately prior to the transmembrane domain, and the resulting cDNA was cloned into the drosophila expression vector pRmHA-3. S2 cells were transfected with a 10:10:1 ratio of DRB1:DRA1:pUChsNeo using calcium phosphate precipitation. Soluble DR production was induced by 1 mM CuSO4, and 5 days later the culture supernatant was collected and adjusted to 0.05% octyl glucoside (OcG). Soluble DR was purified by passage of the supernatant over an affinity column coupled with the anti-DR antibody L227. The column was washed with 0.05% OcG and 0.15 M NaCl in phosphate buffer (PB), pH 7.5, followed by 0.05% OcG and 0.5M NaCl in PB, pH 7.5. DR was eluted with 100 mM Tris, 0.5M NaCl, pH 11.2, and the fractions were immediately neutralized with acetic acid. Recovered DR protein was concentrated using an EMD Millipore stirred cell with a YM30 disc membrane (Beverly, MA) and quantitated by OD 280 nm absorption and SDS-PAGE prior to use.
(§2) For binding assays, a 10 nM solution of purified DR1 or DR4 was incubated for 18 h at 37° C with CII(257–274) peptide (0.5 nM) that had been labeled at the NH2 terminus with biotin as previously described. Various concentrations of peptides were added as competitors to the CII peptide binding. Bound peptides were separated from free peptides by immobilizing the DR molecules on microtiter plates coated with the monoclonal antibody L227 and subsequent washing. The antibody was adhered to the plate by an overnight incubation of a 10 μg/ml solution at 4° C. Bound biotinylated peptides were detected by incubation with streptavidin-europium followed by a chelating enhancement solution. Time resolved fluorescence was quantitated using a microplate fluorometer (FluoroMark, Bio-Rad, Hercules, CA), and data are expressed as relative fluorescence units measured. The 50% inhibitory concentration values (IC50) values were calculated from the binding curves and graphed as 1/IC50 to indicate affinity relative to the control peptide. Each binding assay was performed in duplicate, and data are representative of 3 experiments.
(§3) Fig 2 Measurement of peptide binding to DRB1*04:01. 10 nM of soluble DR4 was incubated for 18 h at 37° C with 0.5 nM of biotinylated CII(257–274) peptide and various concentrations of WT and Cit-peptides as competitors. Bound peptides were separated from free peptides by immobilizing the DR molecules with an antibody on microtiter plates. Bound biotinylated peptide was detected by incubation with streptavidin-europium. Time resolved fluorescence was quantitated and data are expressed as relative fluorescence units measured. Each binding assay was performed in duplicate, and data are representative of 3 experiments.

HLA-DR1 (DRB1*01:01) = target: T2, HLA-DR1 (DRB1*01:01) (Homo sapiens, UniProt P01903+P01911, A100R/D57E/F55L/F60I/F76Y/I96L/L162R/M171V/P40L/Q125E/R42F/V115G/Y59C); assay: Competitive peptide binding assay to soluble HLA-DR1; settings: competition with 0.5 nM biotinylated CII(257–274), 10 nM soluble DR1, 18 h at 37° C, time resolved fluorescence; duplicate, representative of 3 experiments
T2 construct: a new stop codon was inserted immediately prior to the transmembrane domain; made in house; host or cells: Drosophila S2 cells, vector pRmHA-3, secreted, purified on an L227 antibody column
Source text: as §1, §2
as §3, with “Fig 1” for “Fig 2”, “to DRB1*01:01.” for “to DRB1*04:01.”, “soluble DR1” for “soluble DR4”

[1] = tested on: lymph node T cells from B6.DR1 mice; assay: Cytokine production by WT or Cit-peptide stimulated T cells (multiplexed bead assay); format: cell-based, mouse; parameters: key to Cytokine WT/Cit Ratio, TNFα: “–” values the result of no cytokine detected from the Cit-Ag or both antigens; settings: T cells of mice immunized with the immunogen, calculated from Fig 5; for Cytokine WT/Cit Ratio, TNFα: WT over Cit stimulation, “>” = no TNFα produced by Cit-Ag stimulation; for Cytokine WT/Cit Ratio, IFNγ / Cytokine WT/Cit Ratio, IL-6 / Cytokine WT/Cit Ratio, IL-10 / Cytokine WT/Cit Ratio, IL-17A: WT-stimulated over Cit-stimulated, supernatant 3 days
Experimental: Cytokines produced by WT and Cit-peptide stimulated T cells were measured using a multiplexed bead assay (BioRad) and analyzed using a BioRad MagPix. B6.DR1 mice were immunized with WT or Cit-peptide, and 10 days later LN cells were recovered and re-stimulated with the corresponding WT peptide or Cit-peptide. Supernatants were collected 3 days after stimulation and assayed for expression of IFNγ, TNFα, IL-10, IL-17A, and IL-6. Standard curves were used to calculate cytokine concentration. Data are representative of two independent experiments and based on duplicate samples.
Fig 5 Cytokine production by T cells stimulated with WT or Cit-peptides. Supernatants from T cell proliferation assays in Fig 4 were collected 3 days after antigen stimulation and analyzed for the expression of proinflammatory cytokines. Cytokines produced were measured using a multiplexed bead assay and analyzed using a BioRad MagPix. Standard curves were used to calculate cytokine concentration. The cytokines produced by CII immunized T cells stimulated with the immunodominant epitope, CII(257–274), that drives autoimmune arthritis in the B6.DR1 model are shown for comparison (right panels). Data are representative of two independent experiments and based on duplicate samples.

[2] = tested on: B6.DR1 (HLA-DRB1*01:01 transgenic) mice; assay: Induction of autoimmune arthritis in HLA-DR1 transgenic mice; format: in vivo, mouse
Experimental: Citrullinated CII (Cit-CII) was produced using the method described by Lundberg et al. and Burkhardt et al.. 4 ml of CII at 0.25 mg/ml was dialyzed against citrullination buffer (0.1 M Tris-HCl pH 7.6, 10 mM CaCl2, 5 mM DTT), and 6.7 μl (8.5 μg, 33.4 U) of PAD4 (human recombinant, Cayman Chemical) was used to induce citrullination. Sham Cit-CII was produced using the same procedure without the PAD4 enzyme.
For arthritis induction and T cell proliferation assays, 8 to 10 week old mice were immunized subcutaneously at the base of the tail with 100 μg of peptide or bovine CII emulsified in equal volumes of CFA consisting of 85% heavy paraffin oil (Fisher Scientific), 15% mannide mono-oleate (Sigma), and 4 mg/ml of heat killed mycobacterium (H37Ra, Difco). For arthritis studies, mice were examined 3 times per week starting at day 18 after immunization and the presence of arthritis, number of affected limbs, and the severity were assessed. Severity of disease was evaluated by visual inspection and assigned a score using a scale of 0 to 4 based on the degree of inflammation as described.
Fig 8 Induction of autoimmune arthritis in HLA-DR1 mice with WT CII and Cit-CII. B6.DR1 mice were immunized with native CII or Cit-CII and the incidence (panel A) and severity (panels B, C, and D) of arthritis were monitored. […]

Compound: CC(C)C[C@H](NC(=O)[C@H](CC(C)C)NC(=O)[C@@H](NC(=O)[C@@H](N)C(C)C)C(C)C)C(=O)N[C@H](C(=O)N[C@@H](C)C(=O)N[C@H](C(=O)N[C@@H](CCC(=O)O)C(=O)NCC(=O)N[C@@H](CCCNC(N)=O)C(=O)N[C@H](C(=O)N[C@@H](CCCNC(=N)N)C(=O)N[C@H](C(=O)N[C@@H](CC(N)=O)C(=O)N[C@@H](CO)C(=O)N[C@@H](C)C(=O)N[C@@H](Cc1ccc(O)cc1)C(=O)N[C@@H](CCC(N)=O)C(=O)N[C@@H](CC(=O)O)C(=O)N[C@@H](CCCCN)C(=O)O)C(C)C)C(C)C)[C@@H](C)O)C(C)C [cit-Agg] (H-VVLLVATEG[Cit]VRVNSAYQDK-OH)
IC50 (HLA-DR4 (DRB1*04:01)): > 5000 nM
IC50 (HLA-DR1 (DRB1*01:01)): 82.6 nM

Compound: LQYMRADQAAGGLR [CII]
IC50 (HLA-DR4 (DRB1*04:01)): 37.4 nM
IC50 (HLA-DR1 (DRB1*01:01)): 82.9 nM

Compound: NQDFTNRINKLKNS [Fib]
binding to DR4 (in words) (HLA-DR4 (DRB1*04:01); up to 40,000:1 nM ratio of competitor:indicator peptide): essentially undetectable
IC50 (HLA-DR1 (DRB1*01:01)): > 4500 nM
Cytokine WT/Cit Ratio, TNFα [1]: 1.3
Cytokine WT/Cit Ratio, IFNγ [1]: 2.5
Cytokine WT/Cit Ratio, IL-6 [1]: 1.1
Cytokine WT/Cit Ratio, IL-10 [1]: 1.0
Cytokine WT/Cit Ratio, IL-17A [1]: 1.4

Compound: SAVRLRSSVPGVR [Vim]
IC50 (HLA-DR1 (DRB1*01:01)): 76.1 nM

Compound: VVLLVATEGRVRVNSAYQDK [Agg]
IC50 (HLA-DR4 (DRB1*04:01)): > 5000 nM
IC50 (HLA-DR1 (DRB1*01:01)): 110 nM

Compound: citrullinated CII: native bovine type II collagen protein treated with PAD4 to convert Arg to Cit
induction of autoimmune arthritis ([2]; DR1 Tg mice immunized with 100 μg in CFA): induced autoimmune arthritis
severity of arthritis compared with WT CII ([2]; DR1 Tg mice, incidence, onset and severity score 0 to 4): no evidence that the disease was more severe than immunization with WT CII

Second part, led by results:

IC50 (HLA-DR4 (DRB1*04:01)): 170 nM
IC50 (HLA-DR1 (DRB1*01:01)): 121 nM
Compound: CSCC[C@H](NC(=O)[C@H](Cc1ccc(O)cc1)NC(=O)[C@H](CCC(N)=O)NC(=O)[C@@H](N)CC(C)C)C(=O)N[C@@H](CCCNC(N)=O)C(=O)N[C@@H](C)C(=O)N[C@@H](CC(=O)O)C(=O)N[C@@H](CCC(N)=O)C(=O)N[C@@H](C)C(=O)N[C@@H](C)C(=O)NCC(=O)NCC(=O)N[C@@H](CC(C)C)C(=O)N[C@@H](CCCNC(=N)N)C(=O)O [cit-CII] (H-LQYM[Cit]ADQAAGGLR-OH)

IC50 (HLA-DR1 (DRB1*01:01)): > 4500 nM
Compound: CC[C@H](C)[C@H](NC(=O)[C@H](CCCNC(N)=O)NC(=O)[C@H](CC(N)=O)NC(=O)[C@@H](NC(=O)[C@H](Cc1ccccc1)NC(=O)[C@H](CC(=O)O)NC(=O)[C@H](CCC(N)=O)NC(=O)[C@@H](N)CC(N)=O)[C@@H](C)O)C(=O)N[C@@H](CC(N)=O)C(=O)N[C@@H](CCCCN)C(=O)N[C@@H](CC(C)C)C(=O)N[C@@H](CCCCN)C(=O)N[C@@H](CC(N)=O)C(=O)N[C@@H](CO)C(=O)O [cit-Fib] (H-NQDFTN[Cit]INKLKNS-OH; N-terminus and C-terminus assumed)
Cytokine WT/Cit Ratio, TNFα [1]: –
Cytokine WT/Cit Ratio, IFNγ [1]: 0.2
Cytokine WT/Cit Ratio, IL-6 [1]: 0.9
Cytokine WT/Cit Ratio, IL-10 [1]: 0.3
Cytokine WT/Cit Ratio, IL-17A [1]: 1.0

IC50 (HLA-DR1 (DRB1*01:01)): 1.1 nM
Compound: CC(C)C[C@H](NC(=O)[C@H](CCCNC(=N)N)NC(=O)[C@@H](NC(=O)[C@H](C)NC(=O)[C@@H](N)CO)C(C)C)C(=O)N[C@@H](CCCNC(N)=O)C(=O)N[C@@H](CO)C(=O)N[C@@H](CO)C(=O)N[C@H](C(=O)N1CCC[C@H]1C(=O)NCC(=O)N[C@H](C(=O)N[C@@H](CCCNC(=N)N)C(=O)O)C(C)C)C(C)C [cit-Vim] (H-SAVRL[Cit]SSVPGVR-OH)

Reference: PMC7815092, “The role of posttranslational modifications in generating neo-epitopes that bind to rheumatoid arthritis-associated HLA-DR alleles and promote autoimmune T cell responses” (PLoS ONE, 2021)
